In experiment [1] the target is T1, SYK kinase (Homo sapiens, UniProt P43405).
T1 construct: purchased Invitrogen, Carlsbad
The experiment in a line: SYK assay (OMNIA Kinase Assay, Invitrogen). The class given is biochemical. To be noted: apparent Ki calculated from the IC50 using the Cheng-Prusoff equation; 1 mM ATP, 10 μM Peptide Substrate; read-out: SYK Activities: Ki. In outline: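 Reaction velocities were measured from kinetic fluorescence reads (360/485 nm, every 30 s over 30 min) of Mg2+-chelated SOX signal. Conditions were 1 mM ATP, 10 μM Omnia Tyr 7 peptide and 0.2 mM DTT at 30° C. Sigmoidal IC50 fits were converted to apparent Ki using Cheng-Prusoff.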

Experiment [2] has as its target LRRK2 (Homo sapiens, UniProt Q5S007). The experiment in a line: LRRK2 assay (LanthaScreen Eu Kinase Binding Assay). To be noted: 5 nM LRRK2, 10 nM tracer 236, RT 1 h; read-out: LRRK2 Activites: IC50. In outline:
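IC50 was derived from a sigmoidal dose-response fit with variable slope, plotting emission ratio against inhibitor concentration. The read-out is loss of FRET between a europium-labelled anti-tag antibody on the kinase and a tracer displaced by inhibitor.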
In general terms: TR-FRET usually uses a lanthanide donor and a delayed reading to cut background.

In experiment [3] the target is MYLK (Homo sapiens, UniProt Q15746). As to the kind of experiment: MYLK assay (LanthaScreen Eu Kinase Binding Assay). To be noted: 5 nM MYLK, 30 nM tracer 236, RT 1 h; read-out: MYLK Activites: IC50. In outline:
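TR-FRET tracer-displacement binding: 5 nM MYLK with 2 nM Eu-anti-GST antibody and 30 nM tracer 236 in kinase buffer A, 1 h at RT. The 665/615 nm emission ratio was plotted against inhibitor concentration; IC50 from variable-slope sigmoidal fit.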

A word on the IC50: it is the concentration that gives 50% inhibition.

Chain of LRRK2 (Q5S007 970-2527 limits assumed): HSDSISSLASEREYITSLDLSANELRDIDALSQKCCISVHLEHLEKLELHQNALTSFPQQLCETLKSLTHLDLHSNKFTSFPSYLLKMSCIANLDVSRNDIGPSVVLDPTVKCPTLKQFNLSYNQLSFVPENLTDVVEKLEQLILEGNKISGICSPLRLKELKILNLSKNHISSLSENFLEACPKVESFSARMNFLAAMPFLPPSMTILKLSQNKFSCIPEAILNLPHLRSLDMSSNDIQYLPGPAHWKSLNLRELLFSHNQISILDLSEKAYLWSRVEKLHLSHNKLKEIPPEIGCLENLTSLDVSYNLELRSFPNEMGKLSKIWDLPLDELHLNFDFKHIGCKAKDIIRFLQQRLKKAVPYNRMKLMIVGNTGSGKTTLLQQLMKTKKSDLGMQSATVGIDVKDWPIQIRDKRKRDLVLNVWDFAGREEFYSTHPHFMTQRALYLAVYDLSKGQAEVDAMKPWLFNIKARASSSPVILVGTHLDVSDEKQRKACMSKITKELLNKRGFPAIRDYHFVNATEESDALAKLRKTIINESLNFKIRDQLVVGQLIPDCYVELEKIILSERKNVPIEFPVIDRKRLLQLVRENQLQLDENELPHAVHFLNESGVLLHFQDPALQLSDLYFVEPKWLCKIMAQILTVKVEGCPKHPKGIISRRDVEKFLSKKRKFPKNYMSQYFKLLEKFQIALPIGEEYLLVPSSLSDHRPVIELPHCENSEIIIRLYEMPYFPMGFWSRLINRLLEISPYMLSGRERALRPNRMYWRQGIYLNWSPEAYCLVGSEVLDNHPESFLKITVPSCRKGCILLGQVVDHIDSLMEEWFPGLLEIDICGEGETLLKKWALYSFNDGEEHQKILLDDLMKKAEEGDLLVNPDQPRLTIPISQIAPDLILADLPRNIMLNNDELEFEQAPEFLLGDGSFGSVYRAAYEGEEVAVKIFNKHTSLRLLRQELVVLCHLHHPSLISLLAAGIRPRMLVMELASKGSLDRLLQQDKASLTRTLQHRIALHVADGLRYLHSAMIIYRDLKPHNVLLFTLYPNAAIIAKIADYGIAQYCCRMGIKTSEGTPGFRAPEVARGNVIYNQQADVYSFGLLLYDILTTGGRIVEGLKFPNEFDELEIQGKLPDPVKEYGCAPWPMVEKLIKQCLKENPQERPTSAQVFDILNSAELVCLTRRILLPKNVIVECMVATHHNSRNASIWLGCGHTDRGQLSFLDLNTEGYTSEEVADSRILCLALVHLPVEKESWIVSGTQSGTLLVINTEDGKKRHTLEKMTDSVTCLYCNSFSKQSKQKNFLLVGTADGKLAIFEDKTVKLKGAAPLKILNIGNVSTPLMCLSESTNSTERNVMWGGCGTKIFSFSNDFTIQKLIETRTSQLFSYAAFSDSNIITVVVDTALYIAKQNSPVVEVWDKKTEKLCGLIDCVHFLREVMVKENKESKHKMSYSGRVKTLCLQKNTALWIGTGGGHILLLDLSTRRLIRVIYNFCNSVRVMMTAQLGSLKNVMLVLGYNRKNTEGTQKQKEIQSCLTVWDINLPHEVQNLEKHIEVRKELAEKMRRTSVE
Chain of MYLK (Q15746 whole entry): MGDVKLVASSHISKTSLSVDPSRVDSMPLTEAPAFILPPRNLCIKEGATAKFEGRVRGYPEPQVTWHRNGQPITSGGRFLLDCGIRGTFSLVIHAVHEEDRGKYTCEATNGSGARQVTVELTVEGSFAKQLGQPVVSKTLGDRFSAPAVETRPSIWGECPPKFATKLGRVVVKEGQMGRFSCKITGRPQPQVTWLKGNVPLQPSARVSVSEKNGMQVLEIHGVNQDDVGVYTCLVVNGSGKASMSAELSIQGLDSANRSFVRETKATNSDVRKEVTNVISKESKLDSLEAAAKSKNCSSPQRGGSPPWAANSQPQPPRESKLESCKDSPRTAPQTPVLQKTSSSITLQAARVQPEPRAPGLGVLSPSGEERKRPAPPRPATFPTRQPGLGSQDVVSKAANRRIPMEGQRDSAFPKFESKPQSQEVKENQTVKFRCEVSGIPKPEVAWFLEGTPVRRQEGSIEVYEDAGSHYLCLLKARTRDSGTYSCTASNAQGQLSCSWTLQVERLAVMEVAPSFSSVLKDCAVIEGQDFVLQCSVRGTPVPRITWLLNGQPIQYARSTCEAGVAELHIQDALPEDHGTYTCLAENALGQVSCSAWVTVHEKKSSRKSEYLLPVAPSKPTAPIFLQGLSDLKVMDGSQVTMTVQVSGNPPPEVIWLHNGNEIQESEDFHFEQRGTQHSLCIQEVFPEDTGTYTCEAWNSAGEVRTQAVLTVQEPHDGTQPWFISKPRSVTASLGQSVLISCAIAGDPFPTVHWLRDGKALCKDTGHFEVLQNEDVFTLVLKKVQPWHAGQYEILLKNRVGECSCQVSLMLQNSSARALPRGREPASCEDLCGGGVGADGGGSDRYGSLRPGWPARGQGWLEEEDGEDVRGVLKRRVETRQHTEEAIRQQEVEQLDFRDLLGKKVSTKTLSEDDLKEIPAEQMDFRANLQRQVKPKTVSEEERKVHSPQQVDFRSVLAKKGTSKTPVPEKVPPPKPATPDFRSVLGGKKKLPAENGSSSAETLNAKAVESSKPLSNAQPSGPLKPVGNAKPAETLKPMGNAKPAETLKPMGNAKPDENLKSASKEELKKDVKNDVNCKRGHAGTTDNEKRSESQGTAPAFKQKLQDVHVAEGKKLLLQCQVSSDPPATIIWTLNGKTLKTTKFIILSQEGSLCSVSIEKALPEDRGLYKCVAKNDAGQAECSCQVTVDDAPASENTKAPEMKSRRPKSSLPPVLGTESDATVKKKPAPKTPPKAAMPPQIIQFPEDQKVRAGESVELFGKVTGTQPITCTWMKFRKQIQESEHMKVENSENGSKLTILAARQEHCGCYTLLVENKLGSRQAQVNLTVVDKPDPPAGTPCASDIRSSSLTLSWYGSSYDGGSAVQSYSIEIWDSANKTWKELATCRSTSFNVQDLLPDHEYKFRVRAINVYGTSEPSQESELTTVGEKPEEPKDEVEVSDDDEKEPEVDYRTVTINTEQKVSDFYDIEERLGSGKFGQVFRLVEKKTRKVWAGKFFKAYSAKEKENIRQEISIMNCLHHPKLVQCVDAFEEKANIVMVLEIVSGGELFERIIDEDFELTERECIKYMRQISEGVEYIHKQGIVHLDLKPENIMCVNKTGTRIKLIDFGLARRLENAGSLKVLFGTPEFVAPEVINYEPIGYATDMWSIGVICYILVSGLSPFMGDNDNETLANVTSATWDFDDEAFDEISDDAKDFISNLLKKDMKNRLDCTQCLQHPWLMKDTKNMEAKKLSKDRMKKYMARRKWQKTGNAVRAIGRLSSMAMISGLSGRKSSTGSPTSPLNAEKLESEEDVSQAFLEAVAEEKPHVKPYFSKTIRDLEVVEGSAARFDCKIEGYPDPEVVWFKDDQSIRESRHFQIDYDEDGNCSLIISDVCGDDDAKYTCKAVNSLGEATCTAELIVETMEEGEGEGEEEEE

As to `COc1ccc2nc(Nc3ccc(N4CCN(C5CCCC5)CC4)cc3)c3n[nH]cc3c2c1` [Example #269, [4-(4-Cyclopentyl-piperazin-1-yl)-phenyl]-(8-methoxy-2H-pyrazolo[3,4-c]quinolin-4-yl)-amine], the Ki in experiment [1] is 100 to 1000 nM. The values for the half-maximal inhibitory concentration (IC50) in experiment [2] and in experiment [3] were 10 to 100 nM and under 5000 nM, respectively.
On the same counts, the results for `COc1ccc2nc(Nc3ccc(N4CCN(CC(C)C)CC4)cc3)c3n[nH]cc3c2c1` [Example #270, [4-(4-Isobutyl-piperazin-1-yl)-phenyl]-(8-methoxy-2H-pyrazolo[3,4-c]quinolin-4-yl)-amine] are under 10 nM, 100 to 1000 nM and under 5000 nM.
For `COc1ccc2nc(Nc3ccc(N4CCN(C(C)C)CC4)cc3)c3n[nH]cc3c2c1` [Example #271, [4-(4-Isopropyl-piperazin-1-yl)-phenyl]-(8-methoxy-2H-pyrazolo[3,4-c]quinolin-4-yl)-amine], in that order: under 10 nM, 10 to 100 nM and under 5000 nM.
With `COc1ccc2nc(Nc3ccc(N4CCN(CC5CC5)CC4)cc3)c3n[nH]cc3c2c1` [Example #272, [4-(4-Cyclopropylmethyl-piperazin-1-yl)-phenyl]-(8-methoxy-2H-pyrazolo[3,4-c]quinolin-4-yl)-amine], in experiment [1], the Ki is under 10 nM. In addition, the IC50 in experiment [2] is 10 to 100 nM; in experiment [3] it was under 5000 nM.
On the same counts, the results for `COc1ccc2nc(Nc3ccc(N4CCN(C(C)(C)C)CC4)cc3)c3n[nH]cc3c2c1` [Example #273, [4-(4-tert-Butyl-piperazin-1-yl)-phenyl]-(8-methoxy-2H-pyrazolo[3,4-c]quinolin-4-yl)-amine] are 10 to 100 nM, 100 to 1000 nM and under 5000 nM.
With `COc1ccc2nc(Nc3ccc(N4CCN(CC(=O)O)CC4)cc3)c3n[nH]cc3c2c1` [Example #277, 2-(4-(4-((8-methoxy-2H-pyrazolo[3,4-c]quinolin-4-yl)amino)phenyl)piperazin-1-yl)acetic-acid], in experiment [1], the Ki is 10 to 100 nM. In addition, the IC50 in experiment [2] was 10 to 100 nM; in experiment [3] it was under 5000 nM.
On to `COc1ccc2nc(Nc3ccc(CO)cc3)c3n[nH]cc3c2c1` [Example #280, (4-((8-methoxy-2H-pyrazolo[3,4-c]quinolin-4-yl)amino)phenyl)methanol], for which the Ki in experiment [1] was 10 to 100 nM. Also, the 50% inhibitory concentration (IC50) is 100 to 1000 nM in experiment [2] and under 5000 nM in experiment [3].
On the same counts, the results for `COc1ccc2nc(Nc3ccc(N4CCN(CCN(C)C)CC4)cc3)c3n[nH]cc3c2c1` [Example #281, {4-[4-(2-Dimethylamino-ethyl)-piperazin-1-yl]-phenyl}-(8-methoxy-2H-pyrazolo[3,4-c]quinolin-4-yl)-amine] are 10 to 100 nM, 10 to 100 nM and under 5000 nM.
For `COc1cc(OC)c2nc(Nc3ccc(CN4CCN(C)CC4)cc3)c3n[nH]cc3c2c1` [Example #282, (6,8-Dimethoxy-2H-pyrazolo[3,4-c]quinolin-4-yl)-[4-(4-methyl-piperazin-1-ylmethyl)-phenyl]-amine], in that order: 10 to 100 nM, 100 to 1000 nM and under 5000 nM.
On the same counts, the results for `COc1cc(OC)c2nc(Nc3ccc(C(=O)N4CCN(C)CC4)cc3)c3n[nH]cc3c2c1` [Example #283, (4-((6,8-dimethoxy-2H-pyrazolo[3,4-c]quinolin-4-yl)amino)phenyl)(4-methylpiperazin-1-yl)methanone] are 10 to 100 nM, 100 to 1000 nM and under 5000 nM.
As to `COc1cc(OC)c2nc(Nc3ccc(CN(C)C)cc3)c3n[nH]cc3c2c1` [Example #284, (6,8-Dimethoxy-2H-pyrazolo[3,4-c]quinolin-4-yl)-(4-dimethylaminomethyl-phenyl)-amine], the Ki in experiment [1] was 10 to 100 nM. The concentration for half-maximal inhibition (IC50) in experiment [2] is 100 to 1000 nM; in experiment [3] it was under 5000 nM.
On the same counts, the results for `COc1ccc2nc(Nc3ccc4cc(C(=O)O)ccc4c3)c3n[nH]cc3c2c1` [Example #286, 6-((8-methoxy-2H-pyrazolo[3,4-c]quinolin-4-yl)amino)-2-naphthoic acid] are 10 to 100 nM, under 10 nM and under 5000 nM.
For `COc1ccc2nc(Nc3ccc(OCC(=O)O)cc3)c3n[nH]cc3c2c1` [Example #290, 2-(4-((8-methoxy-2H-pyrazolo[3,4-c]quinolin-4-yl)amino)phenoxy)acetic acid], in that order: 10 to 100 nM, 100 to 1000 nM and under 5000 nM.
For `COc1ccc2nc(Nc3ccc4c(c3)CN(C)C4)c3n[nH]cc3c2c1` [Example #294, 8-methoxy-N-(2-methylisoindolin-5-yl)-2H-pyrazolo[3,4-c]quinolin-4-amine], in that order: 10 to 100 nM, 100 to 1000 nM and under 5000 nM.
As to `O=C(O)c1cccc(Nc2nc3ccc(O)cc3c3c[nH]nc23)c1` [Example #296, 3-((8-hydroxy-2H-pyrazolo[3,4-c]quinolin-4-yl)amino)benzoic acid], the Ki in experiment [1] is 100 to 1000 nM. Moreover, the concentration for half-maximal inhibition (IC50) in experiment [2] is 100 to 1000 nM; in experiment [3], under 5000 nM.
Regarding `COc1ccc2nc(Nc3ccc(C(=O)N(C)CCN(C)C)cc3)c3n[nH]cc3c2c1` [Example #300, N-(2-(dimethylamino)ethyl)-4-((8-methoxy-2H-pyrazolo[3,4-c]quinolin-4-yl)amino)-N-methylbenzamide], in experiment [1], the Ki is 10 to 100 nM. Moreover, the concentration for half-maximal inhibition (IC50) is 10 to 100 nM in experiment [2] and under 5000 nM in experiment [3].
For `COCC1CCCN1C(=O)c1ccc(Nc2nc3ccc(OC)cc3c3c[nH]nc23)cc1` (stereo not drawn) [Example #301, (4-((8-methoxy-2H-pyrazolo[3,4-c]quinolin-4-yl)amino)phenyl)(2-(methoxymethyl)pyrrolidin-1-yl)methanone], the Ki in experiment [1] is 10 to 100 nM. The 50% inhibitory concentration (IC50) in experiment [2] was 10 to 100 nM; in experiment [3], under 5000 nM.
For `COc1ccc2nc(Nc3ccc(C(=O)N(C)C)cc3)c3n[nH]cc3c2c1` [Example #303, 4-((8-methoxy-2H-pyrazolo[3,4-c]quinolin-4-yl)amino)-N,N-dimethylbenzamide], the Ki in experiment [1] is 100 to 1000 nM. Moreover, the IC50 is 10 to 100 nM in experiment [2] and under 5000 nM in experiment [3].
For `COc1ccc2nc(Nc3ccc4c(c3)CCCN4C)c3n[nH]cc3c2c1` [Example #308, 8-methoxy-N-(1-methyl-1,2,3,4-tetrahydroquinolin-6-yl)-2H-pyrazolo[3,4-c]quinolin-4-amine], in that order: 10 to 100 nM, 100 to 1000 nM and under 5000 nM.
Consider `COc1ccc2nc(Nc3cccc(S(C)(=O)=O)c3)c3n[nH]cc3c2c1` [Example #320, 8-methoxy-N-(3-(methylsulfonyl)phenyl)-2H-pyrazolo[3,4-c]quinolin-4-amine], for which, in experiment [1], the Ki is 100 to 1000 nM. For the same compound, the values for the half-inhibitory concentration (IC50) in experiment [2] and in experiment [3] were 100 to 1000 nM and under 5000 nM, respectively.
For the compound `CC(=O)N1CCN(c2ccc(Nc3nc4ccc(F)cc4c4cn[nH]c34)cc2)CC1` [Example #323, 1-(4-(4-((8-fluoro-3H-pyrazolo[3,4-c]quinolin-4-yl)amino)phenyl)piperazin-1-yl)ethan-1-one], in experiment [1], the Ki is 100 to 1000 nM. For the same compound, the values for the 50% inhibitory concentration (IC50) in experiment [2] and in experiment [3] were 100 to 1000 nM and under 5000 nM, respectively.
As for `O=C1COc2ccc(Nc3nc4ccc(F)cc4c4cn[nH]c34)cc2N1` [Example #324, 6-((8-fluoro-3H-pyrazolo[3,4-c]quinolin-4-yl)amino)-2H-benzo[b][1,4]oxazin-3(4H)-one], the Ki in experiment [1] is 10 to 100 nM. Moreover, the figures for the IC50 in experiment [2] and in experiment [3] were 100 to 1000 nM and under 5000 nM, respectively.
For `CN1CCN(c2ccc(Nc3nc4ccc(I)cc4c4cn[nH]c34)cc2)CC1` [Example #333, 8-iodo-N-(4-(4-methylpiperazin-1-yl)phenyl)-3H-pyrazolo[3,4-c]quinolin-4-amine], in that order: under 10 nM, 100 to 1000 nM and under 5000 nM.
With `COc1cccc2nc(Nc3cccc(S(C)(=O)=O)c3)c3[nH]ncc3c12` [Example #338, 9-methoxy-N-(3-(methylsulfonyl)phenyl)-3H-pyrazolo[3,4-c]quinolin-4-amine], in experiment [1], the Ki was 100 to 1000 nM. Also, the IC50 is 100 to 1000 nM in experiment [2] and under 5000 nM in experiment [3].
As for `COc1cccc2nc(Nc3ccc4c(c3)NC(=O)CC4)c3[nH]ncc3c12` [Example #339, 7-((9-methoxy-3H-pyrazolo[3,4-c]quinolin-4-yl)amino)-3,4-dihydroquinolin-2(1H)-one], the Ki in experiment [1] was 10 to 100 nM. Moreover, the half-inhibitory concentration (IC50) in experiment [2] is 10 to 100 nM; in experiment [3], under 5000 nM.
Turning to `COc1cccc2nc(Nc3ccc(N4CCN(C(C)=O)CC4)cc3)c3[nH]ncc3c12` [Example #340, 1-(4-(4-((9-methoxy-3H-pyrazolo[3,4-c]quinolin-4-yl)amino)phenyl)piperazin-1-yl)ethan-1-one], in experiment [1], the Ki was 10 to 100 nM. Further, the IC50 is 10 to 100 nM in experiment [2] and under 5000 nM in experiment [3].
For the compound `COc1ccc2nc(Nc3cccc([S+](C)[O-])c3)c3n[nH]cc3c2c1` (stereo not drawn) [Example #346, 8-methoxy-N-(3-(methylsulfinyl)phenyl)-2H-pyrazolo[3,4-c]quinolin-4-amine], the Ki in experiment [1] is 100 to 1000 nM. In addition, the results for the half-inhibitory concentration (IC50) in experiment [2] and in experiment [3] were 100 to 1000 nM and under 5000 nM, respectively.

Values taken from patent US9499535B2, “Kinase inhibitors” (ORIGENIS GMBH, priority 2011, dated 2016).
